Assay results: PubChem BioAssay AID256 (DTP/NCI, 2004)
“And” between values parts separate entries of the source, which are not always exact repeats. Equal values may be shown once. Inconclusive results and toxic doses are left out.

Test system: CD2F1 mice, L1210 leukemia ip, survival T/C
Experiment: NCI In Vivo Anticancer Drug Screen. Data for tumor model L1210 Leukemia (intraperitoneal) in CD2F1 (CDF1) mice
Conditions: higher = longer survival
Outline: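 Antitumor effect is scored in animals hosting a serially transplanted tumor. Values compare compound-dosed animals against vehicle-only controls as a simple quotient.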

[1] = endpoint: mean survival time, dose: 25.0 mg/kg/injection, schedule: Q04DX003 (ip), vehicle: saline with Tween-80
[2] = endpoint: mean survival time, dose: 50.0 mg/kg/injection, schedule: Q04DX003 (ip), vehicle: saline with Tween-80
[3] = endpoint: mean survival time, dose: 100.0 mg/kg/injection, schedule: Q04DX003 (ip), vehicle: saline with Tween-80
[4] = endpoint: mean survival time, dose: 400.0 mg/kg/injection, schedule: Q04DX003 (ip), vehicle: saline with Tween-80
[5] = endpoint: mean survival time, dose: 100.0 mg/kg/injection, schedule: Q01DX009 (ip), vehicle: saline with Tween-80
[6] = endpoint: mean survival time, dose: 200.0 mg/kg/injection, schedule: Q01DX009 (ip), vehicle: saline with Tween-80
[7] = endpoint: mean survival time, dose: 200.0 mg/kg/injection, schedule: Q04DX003 (ip), vehicle: saline with Tween-80
[8] = endpoint: mean survival time, dose: 400.0 mg/kg/injection, schedule: Q01DX009 (ip), vehicle: saline with Tween-80
[9] = endpoint: mean survival time, dose: 25.0 mg/kg/injection, schedule: Q01DX009 (ip), vehicle: saline
[10] = endpoint: mean survival time, dose: 50.0 mg/kg/injection, schedule: Q01DX009 (ip), vehicle: saline
[11] = endpoint: mean survival time, dose: 100.0 mg/kg/injection, schedule: Q01DX009 (ip), vehicle: saline
[12] = endpoint: mean survival time, dose: 25.0 mg/kg/injection, schedule: Q04DX002 (ip), vehicle: saline with Tween-80
[13] = endpoint: mean survival time, dose: 50.0 mg/kg/injection, schedule: Q04DX002 (ip), vehicle: saline with Tween-80
[14] = endpoint: mean survival time, dose: 200.0 mg/kg/injection, schedule: Q01DX001 (ip), vehicle: saline with Tween-80

COc1ccc([N+]2=Cc3cc(OC)c(OC)cc3CC2)cc1OC
T/C (endpoint: mean survival time, dose: 12.5 mg/kg/injection, schedule: Q01DX009 (ip), vehicle: water): 89 % of control
T/C (endpoint: mean survival time, dose: 25.0 mg/kg/injection, schedule: Q01DX009 (ip), vehicle: water): 94 % of control
T/C (endpoint: mean survival time, dose: 50.0 mg/kg/injection, schedule: Q01DX009 (ip), vehicle: water): 97 % of control
T/C (endpoint: mean survival time, dose: 100.0 mg/kg/injection, schedule: Q01DX009 (ip), vehicle: water): 91 % of control

CCCNC1=C(C)C(=O)C2=C(C1=O)[C@H](COC(N)=O)[C@]1(OC)[C@@H]3N[C@@H]3CN21
T/C (endpoint: mean survival time, dose: 10.2 mg/kg/injection, schedule: Q01DX001 (ip), vehicle: saline): 108 % of control
T/C (endpoint: mean survival time, dose: 15.5 mg/kg/injection, schedule: Q01DX001 (ip), vehicle: saline): 112 % of control
T/C (endpoint: mean survival time, dose: 23.2 mg/kg/injection, schedule: Q01DX001 (ip), vehicle: saline): 120 % of control
T/C (endpoint: median survival time, dose: 0.39 mg/kg/injection, schedule: Q01DX009 (ip), vehicle: suspension in saline): 93 % of control
T/C (endpoint: median survival time, dose: 0.78 mg/kg/injection, schedule: Q01DX009 (ip), vehicle: saline): 112 % of control
T/C (endpoint: median survival time, dose: 0.78 mg/kg/injection, schedule: Q01DX009 (ip), vehicle: suspension in saline): 93 % of control
T/C (endpoint: median survival time, dose: 1.56 mg/kg/injection, schedule: Q01DX009 (ip), vehicle: saline): 117 % of control
T/C (endpoint: median survival time, dose: 1.56 mg/kg/injection, schedule: Q01DX009 (ip), vehicle: suspension in saline): 102 % of control
T/C (endpoint: median survival time, dose: 3.12 mg/kg/injection, schedule: Q01DX009 (ip), vehicle: suspension in saline): 102 % of control
T/C (endpoint: median survival time, dose: 6.25 mg/kg/injection, schedule: Q01DX009 (ip), vehicle: saline): 166 % of control
T/C (endpoint: median survival time, dose: 6.25 mg/kg/injection, schedule: Q01DX009 (ip), vehicle: suspension in saline): 104 % of control
T/C (endpoint: median survival time, dose: 12.5 mg/kg/injection, schedule: Q01DX009 (ip), vehicle: saline): 100 % of control
T/C (endpoint: median survival time, dose: 12.5 mg/kg/injection, schedule: Q01DX009 (ip), vehicle: suspension in saline): 112 % of control

O=C(CSCC(=O)c1ccccc1)c1ccccc1
T/C (endpoint: mean survival time, dose: 400.0 mg/kg/injection, schedule: Q04DX002 (ip), vehicle: Klucel (hydroxypropylcellulose) (HPC)): 89 % of control

CC1(C)CC(OP(=O)(c2ccccc2)c2ccccc2)CC(C)(C)N1O
T/C (endpoint: mean survival time, dose: 100.0 mg/kg/injection, schedule: Q04DX003 (ip), vehicle: water): 106 % of control
T/C (endpoint: mean survival time, dose: 200.0 mg/kg/injection, schedule: Q04DX003 (ip), vehicle: water): 91 % of control
T/C (endpoint: mean survival time, dose: 400.0 mg/kg/injection, schedule: Q04DX003 (ip), vehicle: water): 102 % of control

CC(=O)C1CCC2C3CC=C4CC(n5cc(F)c(=O)[nH]c5=O)CCC4(C)C3CCC12C (stereo unspecified)
T/C (endpoint: mean survival time, dose: 12.5 mg/kg/injection, schedule: Q04DX003 (ip), vehicle: Klucel (hydroxypropylcellulose) (HPC)): 97 % of control
T/C (endpoint: mean survival time, dose: 25.0 mg/kg/injection, schedule: Q04DX003 (ip), vehicle: Klucel (hydroxypropylcellulose) (HPC)): 101 % of control
T/C (endpoint: mean survival time, dose: 50.0 mg/kg/injection, schedule: Q04DX003 (ip), vehicle: Klucel (hydroxypropylcellulose) (HPC)): 97 % of control
T/C (endpoint: mean survival time, dose: 100.0 mg/kg/injection, schedule: Q04DX003 (ip), vehicle: Klucel (hydroxypropylcellulose) (HPC)): 98 % of control
T/C (endpoint: mean survival time, dose: 200.0 mg/kg/injection, schedule: Q04DX003 (ip), vehicle: Klucel (hydroxypropylcellulose) (HPC)): 91 % of control

COc1ccc(NC(=S)NN)cc1
T/C [1]: 110 % of control
T/C [2]: 91 % of control
T/C [3]: 87 % of control and 96 % of control
T/C [4]: 107 % of control

CN(C)N=Nc1cc(C#N)cc(C#N)c1
T/C (endpoint: mean survival time, dose: 79.0 mg/kg/injection, schedule: Q01DX009 (ip), vehicle: Klucel (hydroxypropylcellulose) (HPC)): 110 % of control
T/C (endpoint: mean survival time, dose: 118.0 mg/kg/injection, schedule: Q01DX009 (ip), vehicle: Klucel (hydroxypropylcellulose) (HPC)): 110 % of control
T/C (endpoint: mean survival time, dose: 177.0 mg/kg/injection, schedule: Q01DX009 (ip), vehicle: Klucel (hydroxypropylcellulose) (HPC)): 119 % of control
T/C (endpoint: mean survival time, dose: 266.0 mg/kg/injection, schedule: Q01DX009 (ip), vehicle: Klucel (hydroxypropylcellulose) (HPC)): 113 % of control
T/C (endpoint: mean survival time, dose: 400.0 mg/kg/injection, schedule: Q01DX009 (ip), vehicle: Klucel (hydroxypropylcellulose) (HPC)): 89 % of control

c1ccc(-c2cc(-c3ccccc3)on2)cc1
T/C [5]: 96 % of control
T/C [3]: 93 % of control
T/C [6]: 94 % of control
T/C [7]: 94 % of control
T/C [8]: 97 % of control
T/C [4]: 98 % of control

CC1=CC(=O)C(c2ccc(O)cc2O)=CC1=O
T/C (endpoint: mean survival time, dose: 2.5 mg/kg/injection, schedule: Q01DX009 (ip), vehicle: saline with Tween-80): 96 % of control
T/C (endpoint: mean survival time, dose: 2.5 mg/kg/injection, schedule: Q04DX003 (ip), vehicle: saline with Tween-80): 102 % of control
T/C (endpoint: mean survival time, dose: 5.0 mg/kg/injection, schedule: Q01DX009 (ip), vehicle: saline with Tween-80): 91 % of control
T/C (endpoint: mean survival time, dose: 5.0 mg/kg/injection, schedule: Q04DX003 (ip), vehicle: saline with Tween-80): 104 % of control
T/C (endpoint: mean survival time, dose: 10.0 mg/kg/injection, schedule: Q01DX009 (ip), vehicle: saline with Tween-80): 95 % of control
T/C (endpoint: mean survival time, dose: 10.0 mg/kg/injection, schedule: Q04DX003 (ip), vehicle: saline with Tween-80): 95 % of control

CC(=O)c1ccc[n+](Cc2ccc([N+](=O)[O-])cc2)c1
T/C [9]: 117 % of control
T/C [10]: 109 % of control
T/C [11]: 108 % of control

CCOC(=O)c1ccc(NC(=O)Nc2ccc(Cl)cc2Cl)cc1
T/C (endpoint: mean survival time, dose: 12.5 mg/kg/injection, schedule: Q01DX001 (ip), vehicle: saline with Tween-80): 95 % of control
T/C (endpoint: mean survival time, dose: 12.5 mg/kg/injection, schedule: Q01DX009 (ip), vehicle: saline with Tween-80): 91 % of control and 92 % of control
T/C (endpoint: mean survival time, dose: 25.0 mg/kg/injection, schedule: Q01DX001 (ip), vehicle: saline with Tween-80): 93 % of control and 96 % of control
T/C (endpoint: mean survival time, dose: 25.0 mg/kg/injection, schedule: Q01DX009 (ip), vehicle: saline with Tween-80): 88 % of control and 97 % of control
T/C [12]: 95 % of control and 96 % of control
T/C [1]: 86 % of control
T/C (endpoint: mean survival time, dose: 50.0 mg/kg/injection, schedule: Q01DX001 (ip), vehicle: saline with Tween-80): 91 % of control
T/C (endpoint: mean survival time, dose: 50.0 mg/kg/injection, schedule: Q01DX009 (ip), vehicle: saline with Tween-80): 88 % of control
T/C [13]: 88 % of control and 96 % of control
T/C [2]: 91 % of control
T/C [14]: 92 % of control
T/C (endpoint: mean survival time, dose: 200.0 mg/kg/injection, schedule: Q04DX002 (ip), vehicle: saline with Tween-80): 88 % of control
T/C [7]: 89 % of control
T/C (endpoint: mean survival time, dose: 400.0 mg/kg/injection, schedule: Q04DX002 (ip), vehicle: saline with Tween-80): 86 % of control

CC(=O)NC/C(Cl)=C/Cl
T/C [3]: 99 % of control
T/C [7]: 96 % of control
T/C [4]: 88 % of control

CC1=NCCCN=C(C)CC[N-]CCC[N-]CC1.[Ni+2].[O-][Cl+3]([O-])([O-])O
T/C [12]: 103 % of control
T/C [13]: 115 % of control
T/C (endpoint: mean survival time, dose: 100.0 mg/kg/injection, schedule: Q04DX002 (ip), vehicle: saline with Tween-80): 103 % of control
T/C (endpoint: mean survival time, dose: 100.0 mg/kg/injection, schedule: Q04DX002 (ip), vehicle: saline): 124 % of control

COc1cccc(CC(C)N)c1OC (stereo unspecified)
T/C [9]: 98 % of control
T/C [10]: 95 % of control
T/C [11]: 93 % of control
T/C [3]: 95 % of control

Clc1ccc(Sc2ccc(Cl)cc2)cc1
T/C (endpoint: mean survival time, dose: 100.0 mg/kg/injection, schedule: Q01DX001 (ip), vehicle: saline with Tween-80): 94 % of control
T/C [5]: 98 % of control
T/C [3]: 91 % of control
T/C [14]: 108 % of control
T/C [6]: 102 % of control
T/C [7]: 91 % of control
T/C (endpoint: mean survival time, dose: 400.0 mg/kg/injection, schedule: Q01DX001 (ip), vehicle: saline with Tween-80): 91 % of control
T/C [8]: 98 % of control

CC12CCC(O)CC1CCC1C2CCC2(C)C(C3COC(=O)C3)CCC12 (stereo unspecified)
T/C (endpoint: mean survival time, dose: 50.0 mg/kg/injection, schedule: Q01DX001 (ip), vehicle: saline): 98 % of control
T/C (endpoint: mean survival time, dose: 100.0 mg/kg/injection, schedule: Q01DX001 (ip), vehicle: saline): 98 % of control
T/C (endpoint: mean survival time, dose: 200.0 mg/kg/injection, schedule: Q01DX001 (ip), vehicle: saline): 96 % of control
